Measured values as given in patent publication US4665088A, “(E-Z)-4,5,9-trithiadodeca-1,6,11-triene 9-oxides” (The Research Foundation of State University of New York, priority 1984, dated 1987).
Where two headings read alike, the source gives them in different places.

How the values were obtained:
Type in all cases: cell-based
[1] = test system: collagen-induced platelet aggregation (platelet rich, citrated, human blood plasma); assay: Inhibition of collagen-induced aggregation of platelets in platelet rich, citrated human blood plasma
Description: (§1) Though the compounds of this invention have multiple uses such as for example as bacteriocides and fungicides, a particularly important utility is as an antithrombotic agent. Various chemicals are known to cause blood platelets to aggregate which in turn can result in blood clots in the blood circulatory system of living systems. Certain other compounds are known to prevent blood platelet aggregation and accordingly are known herein as antithrombotic agents, while other compounds prevent clotting of aggregated platelets and are called anticoagulants. Both are used in the treatment of phlebitis, stroke, coronary thrombosis and arteriosclerosis. In a typical test to determine antithrombotic activity, the suspected antithrombotic chemical is mixed with a suspension of blood platelets, incubated for a few minutes, and then the suspension is treated with a known amount of a known agonist (agent inducing aggregation). The effectiveness of the suspected antithrombotic is compared to a control which has been treated with the agonist but which has not been treated with the antithrombotic and a quantitative measure of effectiveness is determined by ascertaining the concentration of suspected antithrombotic necessary to reduce by 50% the extent of platelet aggregation compared to the control. This measurement is termed the ID50 of the antithrombotic. Typical agonists include collagen and ADP (adenosine diphosphate).
Platelet rich, citrated, human blood plasma (250,000 platelets/μL) was prepared and divided into 0.45 ml. aliquots for use in determining ID50 levels of the subject compounds. The aliquots were treated with various quantities of (E)-ajoene, (Z)-ajoene, mixed (E,Z)-ajoene and mixed (E,Z)-ajoene together with prostacyclin and indomethacin. A control was maintained free of antithrombotic. The thus treated aliquots were pre-incubated by maintaining in an aggregometer cuvette for 2 minutes at 37° C. with stirring (950 RPM). Each aliquot was then further treated with an appropriate amount of ADP (10 μmole) or collagen (1 μg/ml or 2 μg/ml). Aggregation in each aliquot was monitored for a period of 3-5 minutes and percentage aggregation was quantitated by a dual channel aggregometer which ascertained percent aggregation by comparison against a control of light transmittance through the sample.

[2] = test system: ADP-induced platelet aggregation (platelet rich, citrated, human blood plasma); assay: Inhibition of ADP-induced aggregation of platelets in platelet rich, citrated human blood plasma; conditions: ADP (10 μmole), read-out: ID50 (the source's name)
Description: as §1, with “In a typical test to determine antithrombotic activity, the suspected antithrombotic chemical is mixed with a suspension of blood platelets, incubated for a few minutes, and then the suspension is treated with a known amount of a known agonist (agent inducing aggregation).” left out, “This measurement is termed the ID50 of the antithrombotic. Typical agonists include collagen and ADP (adenosine diphosphate).” left out
Platelet rich, citrated, human blood plasma (250,000 platelets/μL) was prepared and divided into 0.45 ml. aliquots for use in determining ID50 levels of the subject compounds. The aliquots were treated with various quantities of (E)-ajoene, (Z)-ajoene, mixed (E,Z)-ajoene and mixed (E,Z)-ajoene together with prostacyclin and indomethacin. […]

platelet aggregation = assay: Antithrombotic/anticoagulant activity (general statement); conditions: for antithrombotic activity when combined with the compounds of the invention: combined with the compounds of the instant claimed invention
Description: as §1

[3] = COLLAGEN (2 μg/ml), read-out: ID50 (the source's name)
[4] = COLLAGEN (1 μg/ml), (E,Z)-ajoene 70:30 together with Prostacyclin (aliquot 5), read-out: ID50 (the source's name)
[5] = COLLAGEN (1 μg/ml), antithrombotic alone, read-out: ID50 (the source's name)

| SMILES | IC50 [1, 3] | IC50 [2] | IC50 [1, 4] | IC50 [1, 5] | antithrombotic activity when combined with the compounds of the invention (platelet aggregation) | further results |
| --- | --- | --- | --- | --- | --- | --- |
| C=CCSS/C=C\C[S+]([O-])CC=C (stereo not shown) [(Z)-ajoene] | 196 ± 64 µM | 188 ± 38 µM | – | – | – | – |
| CCCCC[C@H](O)/C=C/[C@@H]1[C@H]2C/C(=C/CCCC(=O)O)O[C@H]2C[C@H]1O [Prostacyclin, reference compound] | – | – | 0.001 µM | 0.001 µM | particularly enhanced antithrombotic activity | – |
| C=CCSS/C=C/C[S+]([O-])CC=C (stereo not shown) [(E)-ajoene] | 243 ± 90 µM | 213 µM | – | – | – | – |
| COc1ccc2c(c1)c(CC(=O)O)c(C)n2C(=O)c1ccc(Cl)cc1 [Indomethacin, reference compound] | – | – | – | – | particularly enhanced antithrombotic activity | IC50 ([1]; read-out: ID50): 0.2 µM |
| C=CCSSC=CC[S+]([O-])CC=C (stereo not shown) [(E,Z)-ajoene, (E,Z)-4,5,9-trithiadodeca-1,6,11-triene 9-oxide] | – | – | 2.3 µM | 92 µM | – | IC50 ([1]; COLLAGEN (1 μg/ml), (E,Z)-ajoene 70:30 together with Indomethacin (aliquot 7), read-out: ID50 (the source's name)): 4.5 µM; antithrombotic activity (platelet aggregation): significant antithrombotic activity |
